Source: the supplement of paper PMC4862054

Legend:
CAL-85-1 [1] = assay: drug sensitivity score (DSS), CellTiter-Blue viability (DSS (AUC-based score)); higher = stronger viability inhibition; extreme values may be limits of the assay; settings: incubation time: 72 h
Procedure: (§1)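 DSRT with the CellTiter-Blue (resazurin reduction) viability readout, fluorescence 560/590 nm, 72 h incubation. Plates were normalised to DMSO and benzethonium chloride controls. DSS is computed from the area under the fitted dose-response curve (5 or 9 concentrations).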

SK-BR-3 = assay: as above; settings: incubation time: 72 h
Procedure: as §1

MDA-MB-468 = assay: as above; settings: incubation time: 72 h
Procedure: as §1

DU-4475 [2] = assay: as above; settings: incubation time: 72 h
Procedure: as §1

MDA-MB-436 = assay: as above; settings: incubation time: 72 h
Procedure: as §1

MDA-MB-453 [3] = assay: as above; settings: incubation time: 72 h
Procedure: as §1

CAL-120 = assay: as above; settings: incubation time: 72 h
Procedure: as §1

CAL-51 [4] = assay: as above; settings: incubation time: 72 h
Procedure: as §1

BT-474 = assay: as above; settings: incubation time: 72 h
Procedure: as §1

Hs578T = assay: as above; settings: incubation time: 72 h
Procedure: as §1

HDQ-P1 [5] = assay: as above; settings: incubation time: 72 h
Procedure: as §1

HCC1937 = assay: as above; settings: incubation time: 72 h
Procedure: as §1

HCC1143 = assay: as above; settings: incubation time: 72 h
Procedure: as §1

CAL-148 [6] = assay: as above; settings: incubation time: 72 h
Procedure: as §1

HCC1599 = assay: as above; settings: incubation time: 72 h
Procedure: as §1

MFM-223 = assay: as above; settings: incubation time: 72 h
Procedure: as §1

BT-549 = assay: as above; settings: incubation time: 72 h
Procedure: as §1

MDA-MB-231 = assay: as above; settings: incubation time: 72 h
Procedure: as §1

MDA-MB-453 [7] = settings: 72 h
Outline: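 Breast cancer cell lines in 20 µl suspension were seeded onto 384-well plates pre-loaded with compound dissolved in 5 µl medium, then incubated 72 h. For viability, 2.5 µl CellTiter-Blue was added for 2 h at 37 °C and fluorescence read at 560/590 nm. Each plate was normalised to vehicle and a positive kill control and checked by Z'-factor. EC50 comes from the fitted percent-inhibition dose-response curve, censored at the highest concentration; rows with zero drug sensitivity score were dropped.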

CAL-85-1 [8] = assay: normalised viability (% of control), CellTiter-Blue; higher = more viable cells (about 100 = DMSO control); settings: incubation time: 72 h
Procedure: (§2)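 DSRT, CellTiter-Blue viability, 72 h incubation. Signal is normalised to DMSO and benzethonium chloride controls. Value is the normalised response at dose 6.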

DU-4475 [9] = assay: as above; settings: incubation time: 72 h
Procedure: as §2

MDA-MB-453 [10] = assay: as above; settings: incubation time: 72 h
Procedure: as §2

CAL-51 [11] = assay: as above; settings: incubation time: 72 h
Procedure: as §2

HDQ-P1 [12] = assay: as above; settings: incubation time: 72 h
Procedure: as §2

CAL-148 [13] = assay: as above; settings: incubation time: 72 h
Procedure: as §2

EC50, CellTiter-Blue viability (MDA-MB-453 [7]) [nM] | SMILES | drug sensitivity score (CAL-85-1 [1]) | drug sensitivity score (SK-BR-3) | drug sensitivity score (MDA-MB-468) | drug sensitivity score (DU-4475 [2]) | drug sensitivity score (MDA-MB-436) | drug sensitivity score (MDA-MB-453 [3]) | drug sensitivity score (CAL-120) | drug sensitivity score (CAL-51 [4]) | drug sensitivity score (BT-474) | drug sensitivity score (Hs578T) | drug sensitivity score (HDQ-P1 [5]) | drug sensitivity score (HCC1937) | drug sensitivity score (HCC1143) | drug sensitivity score (CAL-148 [6]) | drug sensitivity score (HCC1599) | drug sensitivity score (MFM-223) | drug sensitivity score (BT-549) | drug sensitivity score (MDA-MB-231) | normalised viability (CAL-85-1 [8]; 300 nM) [%] | normalised viability (DU-4475 [9]; 300 nM) [%] | normalised viability (MDA-MB-453 [10]; 300 nM) [%] | normalised viability (CAL-51 [11]; 300 nM) [%] | normalised viability (HDQ-P1 [12]; 300 nM) [%] | normalised viability (CAL-148 [13]; 300 nM) [%] | normalised viability (CAL-85-1 [8]; 30 nM) [%] | normalised viability (DU-4475 [9]; 30 nM) [%] | normalised viability (MDA-MB-453 [10]; 30 nM) [%] | normalised viability (CAL-51 [11]; 30 nM) [%] | normalised viability (HDQ-P1 [12]; 30 nM) [%] | normalised viability (CAL-148 [13]; 30 nM) [%]
2540 | CN1CCN(CCOc2cc(OC3CCOCC3)c3c(Nc4c(Cl)ccc5c4OCO5)ncnc3c2)CC1 [Saracatinib] | 9.72 | 3.37 | 4.05 | 0 | 0.375 | 4.51 | 4.64 | 8.13 | 5.44 | 0 | 11.5 | 0 | 0 | 1.9 | 0.195 | 0 | 5 | 7.77 | 88.6 | 96.8 | 104 | 85.7 | 85.4 | 92.4 |  |  |  |  |  | 
1430 | Cn1cncc1[C@@](N)(c1ccc(Cl)cc1)c1ccc2c(c1)c(-c1cccc(Cl)c1)cc(=O)n2C [Tipifarnib] | 6.87 | 12.6 | 3.09 | 18.5 | 0 | 10.5 | 12.4 | 9.74 | 5.35 | 5.75 | 13.3 | 15.3 | 14.7 | 18.8 | 9.57 | 7.2 | 5.66 | 11.7 | 64 | 43.9 | 77.2 | 60.2 | 52.5 | 44.9 |  |  |  |  |  | 
169 | O=C1NC(=O)[C@@H](c2cn3c4c(cccc24)CCC3)[C@@H]1c1c[nH]c2ccccc12 [Tivantinib] | 4.04 | 2.61 | 1.21 | 1.35 | 7.87 | 6.08 | 4.4 | 2.15 | 1.07 | 2.65 | 0 | 8.31 | 0 | 1.69 | 0.607 | 0 | 4.05 | 1.91 |  |  |  |  |  |  | 95.8 | 87.3 | 107 | 104 | 55.3 | 104
